By inhibition is commonly meant how much of the control response was suppressed. Lower therefore signals little suppression. Broadly, the Papp A→B is the apparent permeability from the apical to the basolateral side of a cell layer. A word on the Papp B→A: it is the apparent permeability from the basolateral to the apical side of a cell layer.

Where two headings read alike, the source gives them in different places.

The values below come from patent publication US20230049952A1, “METHODS AND COMPOUNDS FOR RESTORING MUTANT P53 FUNCTION” (PMV Pharmaceuticals, Inc., priority 2020, published 2023).

Data set [1] has as its target T1, CYP2D6 (Homo sapiens, UniProt P10635). In words: in vitro. The following applies: both, microsomes, pH 7.4, % of Control Enzyme Activity.
Data set [2] has as its target T1, CYP2D6. The following applies: both, microsomes, 30 min, 0.123 µM, pH 7.4.
The target of data set [3] is T2, MATE1 (Homo sapiens, UniProt Q96FL8). In words: in vitro. The note with it: HEK293 cells transfected with MATE1, probe metformin (50 µM).
T2 sequence (Q96FL8 whole entry): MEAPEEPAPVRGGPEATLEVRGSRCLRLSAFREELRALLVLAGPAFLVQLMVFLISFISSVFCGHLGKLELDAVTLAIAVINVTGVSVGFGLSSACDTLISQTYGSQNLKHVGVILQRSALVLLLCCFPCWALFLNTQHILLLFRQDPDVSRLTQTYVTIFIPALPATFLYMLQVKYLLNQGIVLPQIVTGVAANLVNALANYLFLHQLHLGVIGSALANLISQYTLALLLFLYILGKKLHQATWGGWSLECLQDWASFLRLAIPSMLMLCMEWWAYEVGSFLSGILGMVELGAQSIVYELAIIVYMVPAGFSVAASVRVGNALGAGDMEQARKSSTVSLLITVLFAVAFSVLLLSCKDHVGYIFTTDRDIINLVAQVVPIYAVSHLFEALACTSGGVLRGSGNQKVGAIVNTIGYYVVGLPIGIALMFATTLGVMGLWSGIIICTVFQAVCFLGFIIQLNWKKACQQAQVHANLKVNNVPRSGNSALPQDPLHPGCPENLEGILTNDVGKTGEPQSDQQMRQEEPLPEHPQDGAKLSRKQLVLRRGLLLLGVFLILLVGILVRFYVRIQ
The target of data set [4] is T2, MATE1. Nature of the data set: uptake transporter inhibition assessment, transfected HEK293. The following applies: inhibitor 100 μM.
In data set [5] the target is T3, OAT3 (Homo sapiens, UniProt Q8TCC7). Described as above. The following applies: inhibitor 100 μM.
T3 sequence (Q8TCC7 whole entry): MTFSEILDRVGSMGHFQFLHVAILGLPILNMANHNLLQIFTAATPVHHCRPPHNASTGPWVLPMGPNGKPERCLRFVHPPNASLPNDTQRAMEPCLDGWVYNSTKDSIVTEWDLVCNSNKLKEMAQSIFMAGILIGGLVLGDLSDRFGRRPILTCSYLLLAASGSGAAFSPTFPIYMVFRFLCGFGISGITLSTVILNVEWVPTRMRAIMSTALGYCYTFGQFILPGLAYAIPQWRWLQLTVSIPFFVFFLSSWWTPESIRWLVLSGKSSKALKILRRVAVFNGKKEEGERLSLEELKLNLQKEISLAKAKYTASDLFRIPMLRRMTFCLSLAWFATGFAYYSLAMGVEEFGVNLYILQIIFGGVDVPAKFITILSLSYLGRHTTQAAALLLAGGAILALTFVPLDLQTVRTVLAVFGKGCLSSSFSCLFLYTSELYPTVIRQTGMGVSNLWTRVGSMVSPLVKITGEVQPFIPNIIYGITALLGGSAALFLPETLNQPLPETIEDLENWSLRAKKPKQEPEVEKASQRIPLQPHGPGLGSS
Data set [6] concerns the target T3, OAT3. Nature of the data set: in vitro. The note with it: HEK293 cells transfected with OAT3, probe furosemide (5 µM).
Data set [7] addresses T4, MATE2K (Homo sapiens, UniProt Q86VL8). Nature of the data set: uptake transporter inhibition assessment, transfected HEK293. The following applies: inhibitor 1 μM.
Data set [8] concerns the target T4, MATE2K. In words: in vitro. The note with it: HEK293 cells transfected with MATE2K, probe metformin (50 µM).
Data set [9] relates to P-gp. In words: in vitro. The following applies: human, Caco-2, pH 7.4.
Data set [10] in a line: in vitro. The note with it: human, Caco-2.
In data set [11] the test system is P-gp. In words: in vitro. The note with it: dog, MDCK-MDR1, pH 7.4.
The test system of data set [12] is P-gp (MDR1). Nature of the data set: in vitro. The note with it: dog, MDCK-MDR1.
Data set [13] has as its target T5, P-GP (Homo sapiens, UniProt P08183). In words: P-GP substrate assessment, Caco-2 monolayers.
Data set [14] concerns the target T5, P-GP. Nature of the data set: P-GP substrate assessment, MDR1-MDCK monolayers. The following applies: for Recovery (%): B-to-A.
Data set [15] addresses T5, P-GP. Nature of the data set: in vitro. The note with it: dog, MDCK-MDR1, pH 7.4.
The target in data set [16] is T5, P-GP. In words: in vitro. The following applies: Caco-2, pH 7.4.
For data set [17], the target named is T5, P-GP. Nature of the data set: in vitro.
In data set [18] the target is T5, P-GP. The note with it: Caco-2, 120 min, 10 µM, pH 7.4.

T5 sequence (P08183 whole entry): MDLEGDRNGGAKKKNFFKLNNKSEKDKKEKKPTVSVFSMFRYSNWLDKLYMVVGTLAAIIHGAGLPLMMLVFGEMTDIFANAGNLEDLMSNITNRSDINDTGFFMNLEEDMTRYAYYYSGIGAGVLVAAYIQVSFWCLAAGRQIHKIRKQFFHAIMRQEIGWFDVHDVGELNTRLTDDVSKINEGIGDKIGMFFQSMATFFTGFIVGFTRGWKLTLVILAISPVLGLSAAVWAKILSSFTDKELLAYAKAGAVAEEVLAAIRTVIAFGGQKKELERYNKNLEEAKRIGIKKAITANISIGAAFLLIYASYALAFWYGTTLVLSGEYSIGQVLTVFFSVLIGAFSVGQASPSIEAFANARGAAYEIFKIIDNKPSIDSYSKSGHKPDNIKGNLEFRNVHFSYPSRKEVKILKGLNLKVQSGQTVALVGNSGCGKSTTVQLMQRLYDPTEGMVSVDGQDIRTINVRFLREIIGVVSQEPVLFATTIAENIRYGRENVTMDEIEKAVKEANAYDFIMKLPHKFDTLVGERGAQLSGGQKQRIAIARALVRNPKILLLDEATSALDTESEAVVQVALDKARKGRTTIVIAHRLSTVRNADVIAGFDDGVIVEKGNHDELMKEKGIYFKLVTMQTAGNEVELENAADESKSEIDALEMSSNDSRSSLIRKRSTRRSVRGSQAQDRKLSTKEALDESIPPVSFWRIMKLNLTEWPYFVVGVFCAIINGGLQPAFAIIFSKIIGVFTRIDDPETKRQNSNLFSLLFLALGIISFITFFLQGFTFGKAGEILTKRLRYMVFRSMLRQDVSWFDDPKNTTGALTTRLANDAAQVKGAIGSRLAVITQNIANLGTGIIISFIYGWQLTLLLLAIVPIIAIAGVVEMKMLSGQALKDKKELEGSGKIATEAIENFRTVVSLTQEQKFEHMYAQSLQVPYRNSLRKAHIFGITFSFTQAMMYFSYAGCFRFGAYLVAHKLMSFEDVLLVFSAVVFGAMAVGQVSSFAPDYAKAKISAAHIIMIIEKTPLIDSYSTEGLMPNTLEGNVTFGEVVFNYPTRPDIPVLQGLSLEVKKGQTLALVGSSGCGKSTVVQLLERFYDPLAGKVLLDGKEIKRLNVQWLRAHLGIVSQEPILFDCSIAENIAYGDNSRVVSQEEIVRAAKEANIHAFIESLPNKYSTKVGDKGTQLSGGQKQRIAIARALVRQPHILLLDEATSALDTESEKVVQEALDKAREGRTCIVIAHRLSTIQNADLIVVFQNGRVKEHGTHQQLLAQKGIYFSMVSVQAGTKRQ
T4 sequence (Q86VL8 1-566 isoform Q86VL8-3): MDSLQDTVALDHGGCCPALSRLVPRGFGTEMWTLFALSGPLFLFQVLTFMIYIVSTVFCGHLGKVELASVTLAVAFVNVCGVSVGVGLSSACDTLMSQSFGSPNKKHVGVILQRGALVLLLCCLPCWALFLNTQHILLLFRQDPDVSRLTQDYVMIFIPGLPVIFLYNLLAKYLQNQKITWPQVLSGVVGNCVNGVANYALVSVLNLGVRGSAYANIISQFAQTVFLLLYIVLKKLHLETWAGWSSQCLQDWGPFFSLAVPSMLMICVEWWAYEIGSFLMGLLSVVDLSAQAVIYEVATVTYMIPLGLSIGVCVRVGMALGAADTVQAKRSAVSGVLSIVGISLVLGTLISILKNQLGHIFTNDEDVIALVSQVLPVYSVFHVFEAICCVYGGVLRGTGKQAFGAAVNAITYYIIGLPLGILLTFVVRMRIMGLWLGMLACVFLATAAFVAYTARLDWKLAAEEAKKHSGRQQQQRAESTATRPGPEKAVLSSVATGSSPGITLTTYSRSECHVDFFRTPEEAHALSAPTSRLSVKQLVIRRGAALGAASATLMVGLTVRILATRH
T1 sequence (P10635 whole entry): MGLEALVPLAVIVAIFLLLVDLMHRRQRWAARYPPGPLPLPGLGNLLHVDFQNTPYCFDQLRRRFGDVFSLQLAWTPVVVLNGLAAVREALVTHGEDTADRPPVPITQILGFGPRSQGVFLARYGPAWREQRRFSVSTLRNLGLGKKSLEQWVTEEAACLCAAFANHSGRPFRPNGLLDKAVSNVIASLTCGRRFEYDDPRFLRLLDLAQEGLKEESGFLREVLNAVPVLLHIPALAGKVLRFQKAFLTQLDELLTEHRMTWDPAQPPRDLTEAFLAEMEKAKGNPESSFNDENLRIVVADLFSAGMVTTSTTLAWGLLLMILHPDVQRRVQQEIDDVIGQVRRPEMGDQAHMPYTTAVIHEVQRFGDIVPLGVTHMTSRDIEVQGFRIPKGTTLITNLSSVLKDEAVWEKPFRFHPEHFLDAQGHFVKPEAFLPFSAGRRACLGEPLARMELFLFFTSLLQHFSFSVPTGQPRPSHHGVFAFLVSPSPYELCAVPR

As for `Fc1ccc([C@@H]2CCNC[C@H]2COc2ccc3c(c2)OCO3)cc1` [Paroxetine], the activity at 30 min, 0.123 µM in data set [1] was 95.8%. Moreover, in data set [2], the “% of Control Enzyme Activity” value is recorded as 79.1%.

Take `CN/C(=N/CCSCc1nc[nH]c1C)NC#N` [Cimetidine]: at 100 µM the inhibition in [3] was 99.2%. The “Inhibition Potential Classification” value in data set [4] is given as “Positive (Percent inhibition≥50%: Positive)”.

In the case of `CCCN(CCC)S(=O)(=O)c1ccc(C(=O)O)cc1` [Probenecid], in [5], the “Inhibition Potential Classification” value was “Positive (Percent inhibition≥50%: Positive)”. Also, the inhibition at 100 µM in data set [6] was determined as 72%.

In the case of `CCc1nc(N)nc(N)c1-c1ccc(Cl)cc1` [Pyrimethamine], the “Inhibition Potential Classification” value in data set [7] is “Positive (Percent inhibition≥50%: Positive)”. For the same molecule, in data set [8], the inhibition at 1 µM came out at 93.3%.

With `C[C@H]1O[C@@H](O[C@H]2[C@@H](O)C[C@H](O[C@H]3[C@@H](O)C[C@H](O[C@H]4CC[C@@]5(C)[C@H](CC[C@@H]6[C@@H]5C[C@@H](O)[C@]5(C)[C@@H](C7=CC(=O)OC7)CC[C@]65O)C4)O[C@@H]3C)O[C@@H]2C)C[C@H](O)[C@@H]1O` [Digoxin, digoxin], the apical-to-basolateral permeability (Papp A→B) at 120 min in data set [9] worked out at 0.403 ×10⁻⁶ cm/s; in data set [11], 0.0792 ×10⁻⁶ cm/s; in data set [16], 0.344 ×10⁻⁶ cm/s. Also, the Papp B→A at 120 min in [9] was 8.93 ×10⁻⁶ cm/s; in data set [15] it was 10.4 ×10⁻⁶ cm/s; in data set [16], 10.5 ×10⁻⁶ cm/s. The same molecule gave an apparent permeability from apical to basolateral (Papp A→B) in data set [10] of 0.511 ×10⁻⁶ cm/s. Further, the Papp B→A in data set [12] was 11 ×10⁻⁶ cm/s. The “P-gp Substrate Classification” value in [13] (Digoxin) and in [14] (Digoxin) was “Positive” each time. Further, the “Recovery (%)” value came to 72.2% in [13] (Digoxin + 1 μM Valspodar, A-to-B); 95.3% in data set [13] (Digoxin + 1 μM Valspodar, B-to-A); 79.9% in [13] (Digoxin, B-to-A); 85.9% in data set [14] (Digoxin + 1 μM Valspodar); 74.9% in data set [14] (Digoxin); 79.9% in [18]. Also, the “Papp AVG” value is 0.494 10^−6 cm/s in [13] (Digoxin, A-to-B); 10.9 10^−6 cm/s in [13] (Digoxin, B-to-A); 0.0321 10^−6 cm/s in [14] (Digoxin, A-to-B). Also, the “Papp R1” value in data set [13] (Digoxin, B-to-A) is listed as 11.4 10^−6 cm/s; in data set [14] (Digoxin, A-to-B), 0.0436 10^−6 cm/s. Besides, the recovery at 120 min in [15] stood at 77.6%; in data set [16], 73.4%. In addition, the recovery at 120 min, 10 µM in data set [17] (Caco-2, pH 7.4, % Recovery) came to 95.4%; in data set [17] (Caco-2, pH 7.4, Recovery (%)) it was 73.4%. The Papp B→A at 120 min, 10 μM in data set [17] (Caco-2, pH 7.4, Papp AVG) turned out to be 10.9 ×10⁻⁶ cm/s; in data set [17] (Caco-2, pH 7.4, Papp R2) it was 10.5 ×10⁻⁶ cm/s. Also, the Papp A→B at 120 min, 10 μM stood at 0.344 ×10⁻⁶ cm/s in data set [17] (Caco-2, pH 7.4, Papp R1) and 0.645 ×10⁻⁶ cm/s in data set [17] (Caco-2, pH 7.4, Papp R2).
